Test results from patent US12558342B2, “2-[2-({12,12-dimethyl-4-oxo-6-phenyl-3,11-dioxatricyclo[8.4.0.0,2,7]tetradeca-1,5,7,9-tetraen-8-yl}oxy)acetamido]benzamide and derivatives as inhibitor of clock:bmal1 interaction for the treatment of circadian rhythm diseases and disorders” (KOC UNIVERSITESI, priority 2019, dated 2026).

Key:
[1] = system: wild type MDA MB231 cells; assay: Bmal1::dluc rhythm in wild type MDA MB231 cells; assay type: cell-based
Method: We used Bmal1::dluc U2-OS and Per1::dluc NIH 3T3, and continuously monitored the bioluminescence to record circadian rhythm. This experiment was performed in 96-well plates (triplicates) and 35-mm dishes (duplicates) in the secondary screen and detailed characterization steps respectively. Briefly, cells were seeded to reach confluency. A day after, the medium was replaced with DMEM containing 0.1 μM Dexamethasone to synchronize cells. […] The 96-well plates were covered and bioluminescence was monitored by Synergy H1 Hybrid Multi-Mode Reader every 32 minutes. […] Bioluminescence was recorded every 10 minutes for 4-6 days. […] The first day's data was excluded from the analysis due to transient perturbations of luminescence after the medium change.
HEK 293T cells at 75-85% confluency were transfected with […] of pLV6-Bmal-luc plasmid, 9 ng of pCMV-AR8.2dvpr packaging vector and 1 ng of pCMV-VSVG envelope vector for 16 h. […] At 72-hour post-transduction, the circadian rhythms of cells monitored using Lumicycle.
We used Bmal1::dluc U2-OS and Per1::dluc NIH 3T3, and continuously monitored the bioluminescence to record circadian rhythm. […] The 96-well plates were covered and bioluminescence was monitored by Synergy H1 Hybrid Multi-Mode Reader every 32 minutes. […] Bioluminescence was recorded every 10 minutes for 4-6 days. […]

[2] = system: core clock components; assay: Time dependent protein and mRNA analysis in synchronized U2OS cells; assay type: cell-based, human
Method: FIGS. 5A-5K are an illustration of FORMULA I altered CLOCK protein level in time dependent manner. Confluent U2OS cells were synchronized by 2-hours treatment with dexamethasone (0.1 μM) and medium replaced with fresh medium containing CLK8 or DMSO. Cells were harvested at indicated time points. FIGS. 5A-5D show a time dependent analysis of core clock proteins by Western blot. (mean±SEM, n=3). FIGS. 5E-5K show a qPCR analysis of the core clock genes in a time dependent manner. (Data represent the mean±SEM, n=3 ***: p<0.001 **: p<0.005, *: p<0.05 versus DMSO control by one-way ANOVA Tukey).
Unsynchronized Bmal1::dluc U2OS cells were seeded on 6-well dishes. Confluent cells were treated with an appropriate amount of CLK8 for 48 hours. Control cells were treated with 0.5% vehicle (DMSO). After harvesting the cells, mRNAs were isolated (RNeasy, QIAGEN) and converted to cDNA (Thermo Scientific). Finally, cDNAs were subjected to SYBR Green-based RT-qPCR assay. PRLP0 was used as an internal control. For western blot analysis RIPA buffer was used to prepare whole cell lysates. The amount of protein for each sample was normalized to the β-ACTIN amount detected by β-Actin antibody (Cell Signalling).

SMILES: CC1(C)CCc2c(cc(OCC(=O)Nc3ccccc3C(N)=O)c3c(-c4ccccc4)cc(=O)oc23)O1 [CLK8, 2-[2-({12,12-dimethyl-4-oxo-6-phenyl-3,11-dioxatricyclo [8.4.0.0,2,7]tetradeca-1,5,7,9-tetraen-8-yl}oxy)acetamido] benzamide]
- amplitude of circadian rhythm [1]: enhance amplitude
- CRY1 and PER2 protein abundance [2]: comparable protein abundance
- CRY1 and PER2 transcript level [2]: significantly reduced
- protein levels of CLOCK and BMAL1 [2]: reduced
- transcriptional level of Clock [2]: increased
- oscillatory amplitude of clock gene expression ([2]; collected every 6 h): generally lower
